The values below come from patent publication US11352331B2, “Crystal and salt of 4-(naphthalen-1-yl)-4H-1,2,4-triazole compound and preparation method therefor” (MEDSHINE DISCOVERY INC., priority 2017, dated 2022).

Read-outs that look alike come from different tables or passages of the source.

For data set [1] the following is noted: human, 0-144 hour, after lesinurad, cited from earlier work.
The test system of data set [2] is Liver cells. As to conditions: Dog; cited from earlier work.
The subject of data set [3] is Liver cells. To be noted: Rat; cited from earlier work.
The subject of data set [4] is Liver cells. As to conditions: Human; cited from earlier work.
Data set [5] concerns Liver cells. To be noted: Monkey; cited from earlier work.
The conditions of data set [6]: Liver microsomes, Monkey; cited from earlier work.
A further data set concerns the target T1, URAT-1 (Homo sapiens, UniProt Q96S37).
T1 construct: expressed in transfected cells
T1 sequence (Q96S37 1-553): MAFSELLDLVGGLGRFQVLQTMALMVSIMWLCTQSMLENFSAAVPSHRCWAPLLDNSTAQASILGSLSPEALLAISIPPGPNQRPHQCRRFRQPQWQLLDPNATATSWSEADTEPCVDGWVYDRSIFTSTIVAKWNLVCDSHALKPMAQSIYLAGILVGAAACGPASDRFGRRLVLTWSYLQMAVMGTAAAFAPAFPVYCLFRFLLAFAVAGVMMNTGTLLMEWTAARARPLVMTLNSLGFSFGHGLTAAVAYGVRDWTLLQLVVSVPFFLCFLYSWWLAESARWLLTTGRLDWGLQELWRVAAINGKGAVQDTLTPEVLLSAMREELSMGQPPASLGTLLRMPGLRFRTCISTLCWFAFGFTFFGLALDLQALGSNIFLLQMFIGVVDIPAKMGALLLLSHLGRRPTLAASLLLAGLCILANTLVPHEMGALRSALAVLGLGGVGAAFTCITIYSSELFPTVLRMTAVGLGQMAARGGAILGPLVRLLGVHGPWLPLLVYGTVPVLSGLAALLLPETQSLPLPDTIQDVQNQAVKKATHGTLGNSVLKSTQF
Kind of data set: Inhibition of 14C-uric acid uptake in MDCK cells stably transfected with URAT-1 gene. The format is cell-based. To be noted: MDCK cells stably transfected with URAT-1, substrate 14C-uric acid 50 μM; read-out: IC50 of the inhibitory effect on URAT-1.

A short description of data set [7]: Pharmacokinetics in cynomolgus monkeys after IV and PO administration. As to conditions: for Vd: read-out: Apparent volume of distribution Vdss; for clearance: read-out: Clearance rate Cl; for half-life: read-out: Half-life T1/2 (converted); for C0: read-out: Initial concentration C0; for MRT inf: read-out: Residence time MRT0-inf; for Cmax: read-out: Peak concentration Cmax; for Tmax: read-out: Time to peak Tmax; for Mutual transformation between the two axially chiral isomers in vivo: circulation system. The format is in vivo. As to the method:
24 healthy adult male cynomolgus monkeys were divided into 8 groups (there were IV and PO groups for each compound) with 3 animals per group.
An appropriate amount of the samples was weighted and dissolved in a certain amount of DMSO by ultrasound, followed by addition of PEG400 solution to obtain clear solutions (DMSO/PEG400/H2O (5/40/55)) of the compounds to be tested with a concentration of 2 mg/mL for IV administration.
An appropriate amount of the samples was weighted and dissolved in a certain amount of DMSO by ultrasound, followed by addition of 0.5% MC solution to obtain suspensions (DMSO/0.5% MC (5/95)) of the compounds to be tested with a concentration of 2 mg/mL for PO administration.
24 male cynomolgus monkeys were divided into 8 groups with 3 animals per group, and the drugs were administered through IV and PO after the animals had been fasting overnight. The dose for IV administration was 2 mg/kg and the dosing volume was 1 mL/kg; the dose for PO administration was 10 mg/kg and the dosing volume was 5 mL/kg.
In the IV administration groups, approximately 200 μL of blood was collected 0.083, 0.25, 0.5, 1, 2, 4, 6, 8, and 24 hours after administration; the collected blood samples were added into anticoagulation tubes containing K2-EDTA and centrifuged at 3000 rpm for 15 minutes; the plasma was isolated and stored at −80° C. In the PO administration groups, the blood was collected 0.25, 0.5, 1, 2, 4, 6, 8, and 24 hours after administration, and other operations were the same as in the IV administration group. After the plasma samples were pre-treated to precipitate the protein, the drug concentration in the plasma was determined by LC/MS/MS method. The linear range of the analysis method was 20.00-6000 nM. In PO administration group, urine was collected 0-24 hours after administration, and the drug concentration in the urine was determined by LC/MS/MS method. The linear range of the analysis method was 20.00-6000 nM.

Another data set addresses T2, OAT-4 (Homo sapiens, UniProt Q9NSA0).
T2 construct: expressed in transfected cells; host or cells: MDCK (canine kidney) cells; the empty-vector control is pcDNA3.1
T2 sequence (Q9NSA0 1-550): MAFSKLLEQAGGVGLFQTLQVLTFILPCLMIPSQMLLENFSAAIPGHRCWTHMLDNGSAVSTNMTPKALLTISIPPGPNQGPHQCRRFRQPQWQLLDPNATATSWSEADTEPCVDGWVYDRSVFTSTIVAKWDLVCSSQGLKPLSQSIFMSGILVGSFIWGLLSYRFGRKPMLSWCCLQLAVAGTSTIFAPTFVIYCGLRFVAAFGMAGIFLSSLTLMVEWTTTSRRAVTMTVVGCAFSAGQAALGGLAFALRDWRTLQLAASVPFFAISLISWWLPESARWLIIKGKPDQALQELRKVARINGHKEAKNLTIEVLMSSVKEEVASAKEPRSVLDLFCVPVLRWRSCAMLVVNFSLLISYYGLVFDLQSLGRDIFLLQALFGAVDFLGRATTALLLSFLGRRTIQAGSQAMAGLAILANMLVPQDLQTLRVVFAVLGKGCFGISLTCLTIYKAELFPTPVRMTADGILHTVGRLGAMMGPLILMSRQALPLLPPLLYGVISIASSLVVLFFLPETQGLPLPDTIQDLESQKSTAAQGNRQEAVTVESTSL
Kind of data set: Inhibition of substrate uptake in MDCK cells overexpressing OAT-4. Format: cell-based. To be noted: MDCK-OAT4 cells.

Data set [8] can be described thus: Solid stability test of the crystal form A of compound 1. The format is physicochemical. To be noted: high temperature, high humidity and strong light. From the text:
Samples placed under high temperature and high humidity conditions were sealed with aluminum foil paper and small holes were punched in the aluminum foil paper to ensure that the sample could fully contact with ambient air; samples placed under strong light conditions were sealed with threaded caps. The samples placed under different conditions were sampled and tested on the 5th day and 10th day (XRPD and HPLC), and the test results were compared with the initial test results obtained on day 0.

In the next data set the test system is human liver cells. Kind of data set: Metabolite detection after incubation in human liver cells for 120 minutes (LC-UV-MSn). The format is in vitro ADME. To be noted: for UV area percentage: 10 μM. As to the method: The objective of this experiment is detect the metabolites of the compounds after incubation in human liver cells for 120 minutes using LC-UV-MS^n (n=1-2). After data collection, MetaboLynx™ software was used to analyze MS and MS^2 data.
After the cells were incubated with the samples for 2 hours, protein was precipitated using acetonitrile containing formic acid and then the mixture was centrifuged. The supernatant was taken out and blow-dried with nitrogen, and then redissolved and injected for analysis.

Setting [9] is: male, cynomolgus monkey, plasma, iv, 2 mg/kg, IV, 2 mg/kg.
Where [10] appears, read: male, cynomolgus monkey, plasma, po, 10 mg/kg, PO, 10 mg/kg.
Setting [11] is: IV, 2 mg/kg, listed as Compound 1b (crystal form C).
Where [12] appears, read: PO, 10 mg/kg, listed as Compound 1b (crystal form C).
Setting [13] is: PO, 10 mg/kg, listed as Compound 1a (crystal form B).

Description for OAT-4: The IC50 values of the compounds in inhibiting reabsorption of specific substrates were determined using MDCK (canine kidney cell) cell line stably transfected with OAT-4 (organic anion transporter-4) gene.
The cell culture medium used in the intake inhibition experiment was DMEM (cell essential medium culture medium) supplemented with 10% FBS (containing penicillin and streptomycin). […] The cell suspensions were adjusted to obtain a density of 2.0-3.0×10^5 cells/mL with medium, and then inoculated into 24-well cell culture plates in an amount of 1 mL/well. The cells were cultured in an incubator with 5% CO2 and saturated air humidity at 37° C. for 2-3 days, after which the cells grew over the wells. […]
The uptake value of the transporter cells in the group containing only the radiolabeled substrate (deducting the uptake value U0 cells with empty vector in the background group) was defined as 100% (control, Uc), which was counted as a standard for the calculation of the percentage (%) of the intake value U (after deducting the background) in each administration group after adding the tested compounds against the intake value Uc in the control group, and the inhibitory rate (IR) of each concentration on the activity of the transporter was calculated to express the extent of the inhibitory effect of the compounds on the transporters. […]
Description for URAT-1: The IC50 values of the compounds in inhibiting uric acid reabsorption were determined using MDCK (canine kidney cell) cell line stably transfected with DRAT-1 (uric acid transporter) gene.
DRAT-1 (MDCK) cell line: MDCK cells stably transfected with URAT-1 gene.
Cell culture medium: MEM (minimum essential medium Eagle) medium supplemented with 10% FBS (fetal bovine serum), 1% sodium pyruvate and 250 μg/mL G418 (geneticin).
1) The supernatant of the cell culture medium was removed by aspiration and the cells were rinsed with 10 mL PBS (phosphate buffered saline solution).
2) Preheated trypsin was added into the rinsed cell culture flask, and then the flask was rotated to make the trypsin evenly cover the bottom of the flask and the cells were digested at room temperature.
3) 10-15 mL of culture medium was used to suspend the cells in each T150 flask. 0.1 mL of the cells was sucked out and 2-fold diluted with trypan blue solution, and then the cells were counted. […]
^14C labelled-uric acid solution was diluted and added into the cell plate to obtain a final concentration of 50 μM. […] After adding the scintillation liquid, the signal was read in a liquid scintillation counter Tri-Carb.
According to the luminescent data, the inhibitory effect of the compounds on URAT-1 was analyzed, and the percent inhibition was calculated. […]

With `O=C(O)CSc1nncn1-c1ccc(C2CC2)c2ccccc12` [Compound M2], the “Percentage of the administered dose” value in data set [1] (Faeces) was 4.8%; in data set [1] (Urine), 0.3%.
In the case of `O=C(O)CSc1nnc(Br)n1-c1ccc(C2(O)CC2)c2ccccc12` [Compound M3], the “Amount of lesinurad and metabolites (Total 100)” value in the data set with Liver cells [2] is “not detected”; with Liver cells [3], “not detected”; in the data set with Liver cells [4], 2.24%; in the data set with Liver cells [5] it was 1.45%; in data set [6] it was 7.9%. For the same compound, the “Percentage of the administered dose” value in [1] (Faeces) is on record as 0.3%; in data set [1] (Urine), 12.0%.
Regarding `O=C(O)CSc1nnc(Br)n1-c1c(Cl)cc(C2CC2)c2ccccc12` [Compound 1], the IC50 at URAT-1 worked out at 10.4 µM. Further, the “Area under the curve AUG0-inf” value in [7] (IV, 2 mg/kg) amounted to 18.389 µM·h. Moreover, in [7] (PO, 10 mg/kg), the “Area under the curve AUG0-inf” value was found to be 120.062 µM·h and the “Mean drug concentration in urine (0-24 h) Curine, 0-24 h” value (shortened to “Mean drug concentration in urine”) is 38.915 µM. In data set [7] (setting [9]), the Vd stood at 1.09 L/kg, the clearance came to 4.2 mL/min/kg, the half-life was 3.61 h and the C0 is 42.2 µM. For the same compound, the MRT inf in [7] (setting [9]) stood at 4.01 h. The bioavailability in data set [7] (male, cynomolgus monkey, plasma, po, 10 mg/kg, PO, 10 mg/kg, read-out: Bioavailability F) amounted to 131%. Further, in data set [7] (setting [10]), the half-life is 3.34 h, the Cmax amounted to 46.1 µM, the MRT inf was determined as 3.76 h and the time of peak concentration (Tmax) worked out at 0.83 h. The IC50 on OAT-4 (substrate 3H-estrone ammonium sulfate, read-out: IC50 of the inhibition on OAT-4 transporting 3H-ES (3H-estrone ammonium sulfate)) was 17.1 µM. In addition, the IC50 at OAT-4 (substrate 14C-uric acid, read-out: IC50 of the inhibition on OAT-4 transporting 14C-UA (14C-uric acid)) was 7.92 µM. The “Solid stability (conclusion)” value in [8] is “good stability”.
As for `O=C(O)CSc1nncn1-c1ccc(C2(O)CC2)c2ccccc12` [Compound M5], in data set [1] (Faeces), the “Percentage of the administered dose” value is given as 3.6%.
`O=C(O)CSc1nnc(Br)n1-c1c(Cl)cc(C2CC2)c2ccccc12` (single isomer, unassigned) [Compound 1b]: the IC50 on URAT-1 is above 20 µM. Moreover, in data set [7] (setting [11]), the “Apparent volume of distribution Vdss” value worked out at 0.661 L/kg, the “Area under the curve AUG0-inf” value was found to be 16.092 µM·h, the “Clearance rate Cl” value stood at 4.78 mL/min/kg and the “Half-life T1/2” value is 4.28 h. For the same compound, in data set [7] (setting [11]), the “Residence time MRT0-inf” value is 2.34 h. For the same compound, the C0 in [7] (IV, 2 mg/kg, listed as Compound 1b (crystal form C), 2 mg/kg) is 42.1 µM. Besides, in data set [7] (setting [12]), the “Area under the curve AUG0-inf” value was 62.456 µM·h, the “Bioavailability F” value is 77.6%, the “Half-life T1/2” value amounted to 4.46 h and the “Residence time MRT0-inf” value is recorded as 5.74 h. In addition, in data set [7] (setting [12]), the “Time to peak Tmax” value turned out to be 2.33 h and the “Mean drug concentration in urine” value turned out to be 7.976 µM. Besides, the Cmax in data set [7] (PO, 10 mg/kg, listed as Compound 1b (crystal form C), 10 mg/kg) was determined as 13.2 µM. Also, the “Mutual transformation between the two axially chiral isomers in vivo” value in data set [7] was “no mutual transformation”. For the same compound, in the data set with human liver cells, the Metabolite detection entry is “no metabolite was detected” and the UV area percentage was found to be 100%.
As to `O=C(O)CSc1nnc(Br)n1-c1ccc(C2CC2)c2c1C=CC(O)C2O` (stereo not drawn) [Compound M4], the “Amount of lesinurad and metabolites (Total 100)” value with Liver cells [2] was “not detected”; in the data set with Liver cells [3] it was “not detected”; in the data set with Liver cells [4] it was 5.69%; in the data set with Liver cells [5] it was 0.47%. Moreover, the “Percentage of the administered dose” value in [1] (Faeces) was 5.0%; in data set [1] (Urine), 15.7%.
In the case of `O=C(O)CSc1nnc(Br)n1-c1c(Cl)cc(C2CC2)c2ccccc12` (single isomer, unassigned) [Compound 1a], in [7] (IV, 2 mg/kg, listed as Compound 1a (crystal form B)), the “Area under the curve AUG0-inf” value was 15.709 µM·h. Further, in data set [7] (setting [13]), the “Area under the curve AUG0-inf” value was 89.77 µM·h; the “Bioavailability F” value stood at 132%; the “Mean drug concentration in urine” value is 54.403 µM. Also, the “Mutual transformation between the two axially chiral isomers in vivo” value in [7] was “no mutual transformation”. In data set [7] (setting [9]), the Vd was found to be 0.533 L/kg, the clearance was determined as 4.88 mL/min/kg, the half-life is 3.39 h and the C0 was found to be 32 µM. Besides, the MRT inf in data set [7] (setting [9]) came to 1.83 h. Further, in [7] (setting [10]), the half-life was 4.1 h, the Cmax turned out to be 22.6 µM, the MRT inf is 4.65 h and the Tmax was determined as 1.33 h. In the data set with human liver cells, the Metabolite detection result is listed as “no metabolite was detected” and the UV area percentage worked out at 100%.
